assay: gradient 5% acetonitrile 3 min, to 50% in 2 min, to 85% in 15 min, held 3 min, 100 µL/min; settings: column: Zorbax Extend-C18 2.1 x 50 mm; eluents: water / acetonitrile, 0.1% formic acid
How it was run: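 The mobile phases were water and acetonitrile, each with 0.1% formic acid, pumped at 100 μL/min through a Zorbax Extend-C18 column (2.1 × 50 mm, 1.8 μm). Pure standards were injected as mixtures of ~100 molecules and detected by a quadrupole time-of-flight mass spectrometer in positive and negative ionization mode. Retention time came from computationally picked adduct peaks, each inspected by hand.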

Point of comparison: `CCS(=O)(=O)Nc1ccc(-c2noc(COc3ccc(Cl)cc3)n2)cc1`, RP-LC retention time 1010 s. Against it:
- CCCCN1CCC(N(C(=O)NCCc2ccccc2)C2CCOCC2)CC1 — lower, 671 s
- CC(C)c1ccc(S(=O)(=O)N2CCC(C(=O)NCc3csc(-c4cccs4)n3)CC2)cc1 — higher, 1030 s
- O=C(Cn1cnc2sc3c(c2c1=O)CCCC3)Nc1cccc(Cl)c1 — lower, 984 s
- COc1ccc(CNC(=O)N2CCC(OC3CCN(S(C)(=O)=O)CC3)CC2)cc1 — lower, 699 s
- O=C(CCCN1CCN(Cc2ccc(F)cc2)C(=O)C1=O)Nc1ccc(Br)cc1F — lower, 814 s
- CCOc1ccccc1C1CC(=O)NC(SCC(=O)Nc2nccs2)=C1C#N (centres undefined) — lower, 734 s
- CCCc1cc(C2CCCN2C(=O)c2c(OC)cccc2OC)no1 (centres undefined) — lower, 898 s
- CN(C)c1ccc(CNC(=O)CCc2c(-c3ccc(Br)cc3)nc3ccccn23)cc1 — lower, 599 s
- Cc1cnc(C(=O)N2CC(c3nc(CCOCC4CC4)no3)C2)cn1 — lower, 706 s
- CN1C(=O)c2ccccc2C(C(=O)NCc2ccccn2)C1c1cccs1 (centres undefined) — lower, 607 s
- CCCCn1c(CN(C)C(=O)c2ccco2)nc2ccccc21 — lower, 648 s
- Nc1nc(N2CCCC2)ncc1C(=O)NCc1ccccc1 — lower, 615 s
- COCCNc1c(-c2ccccc2)nc2sc(C(=O)N3CCN(C)CC3)c(C)n12 — lower, 601 s
- COc1ccccc1-c1csc(-c2nnn(-c3ccc(Cl)cc3)c2N)n1 — higher, 1190 s
- C[C@H]1CN(C(=O)COc2ccc(F)cc2)C[C@@H]1c1nc(-c2ccncc2)no1 — lower, 793 s
- CCCNc1cc(N2CCC(CCC(=O)Nc3ccc(OC)c(OC)c3)CC2)ncn1 — lower, 648 s
- Cc1ccc(NC(=O)N2CCCC(Cn3cnc4cccnc43)C2)c(C)c1 (centres undefined) — lower, 680 s
- Cc1ccccc1Nc1c(-c2ccc(N(C)C)cc2)nc2cccc(C)n12 — lower, 811 s
- COc1ccc(OC)c(NC(=O)N(C)CCc2noc(COc3ccc(F)cc3)n2)c1 — lower, 919 s
- Cc1c(NC(=O)c2ccc([N+](=O)[O-])cc2Cl)c(=O)n(-c2ccccc2)n1C — lower, 652 s
- CN(CC1(C)CCOCC1)C(=O)c1ccc2ccccc2n1 — lower, 727 s
- CCOC(=O)c1ccccc1NC(=O)Cn1c(-c2ccc(F)cc2)nc(C)cc1=O — higher, 1320 s
- CCc1nc2cc(N3CCC(C(=O)N4CCCC4)CC3)cnc2nc1CC — lower, 714 s
- COc1ccccc1-c1nnc(-c2cc(S(=O)(=O)N3CCOCC3)ccc2Cl)o1 — lower, 902 s
- CCOc1ccc(CNC(=O)C2(c3ccc(NC(C)=O)cc3)CCCCC2)cc1 — lower, 866 s
- CC(NC(=O)Cn1ncc2c(N3CCN(c4ccccn4)CC3)ncnc21)c1ccccc1 (centres undefined) — lower, 616 s
- CCn1cnc(S(=O)(=O)N2CCC(C(=O)NCCc3nc4ccc(C)cc4[nH]3)CC2)c1 — lower, 589 s
- CC(C)(Oc1ccc(Cl)cc1)C(=O)NCc1nnnn1C1CCCCC1 — lower, 945 s
- CCOc1ccc(CNS(=O)(=O)c2cc(-c3cnn4c(C)cc(C)nc34)ccc2C)cc1OCC — higher, 1040 s
- COC(=O)C1=CN(c2ccc(Br)cc2)c2cc(F)ccc2S1(=O)=O — lower, 939 s
- Cc1cc(NC(=O)c2cc(Cl)sc2Cl)n(C(C)C)n1 — lower, 810 s
- CC1CCN(C(=O)C2=CN(c3ccccc3)c3cc(Cl)ccc3S2(=O)=O)CC1 — lower, 999 s
- COc1ccc(NC(=O)c2ccc(-c3ccsc3)nc2)cc1 — lower, 862 s
- COc1ccc(CCc2nc3nccc(-c4ccncc4)n3n2)cc1 — lower, 697 s
- CN(C)CC(O)Cn1c2ccc(Br)cc2c2cc(Br)ccc21 (centres undefined) — lower, 782 s
- Cc1cc(-c2nnc(-c3ccc(F)cc3)o2)c(C)n1CC(=O)Nc1ccc(F)c(F)c1 — higher, 1040 s
- CCOCCCNC(=O)C1CCN(c2cc(Oc3ccc(CC)cc3)ncn2)CC1 — lower, 646 s
- O=C(NCCc1ccccc1)C1=Cc2ccccc2OC=C1 — the same, 1010 s
- Cc1ccc(-c2nc3cccnc3n2CCCNC(=O)Nc2ccc3c(c2)OCCO3)cc1 — lower, 698 s
- Cc1ccc2c(c1)N(Cc1ccccc1F)N=C(C(=O)N1CCC(C)CC1)S2(=O)=O — higher, 1090 s
- CCOC(=O)c1[nH]c(C)c(CCC(=O)N2CCC(C(=O)NCc3ccccc3Cl)CC2)c1C — lower, 808 s
- CCOc1ccc2nc(NC(=O)Cc3csc4nc(-c5ccccc5)cn34)sc2c1 — lower, 874 s
- COc1ccc(-n2ccnc(NC(=O)Nc3cccc(F)c3)c2=O)cc1OC — lower, 882 s
